Literature values as cited in patent publication US20120135069A1, “NANONIZED TESTOSTERON FORMULATIONS FOR IMPROVED BIOAVAILABILITY” (PHARMASOL GMBH, priority 2009, published 2012).

Legend:
[1] = in vivo
[2] = taken orally

Row | Compound | liver toxicity [1] | fraction of the drug immediately metabolised by liver enzymes (first pass effect) [2]
1 | C[C@]12CCC(=O)C=C1CC[C@@H]1[C@@H]2CC[C@@]2(C)[C@H]1CC[C@]2(C)O [methyltestosterone] | very liver toxic | –
2 | C[C@]12CC[C@H]3[C@@H](CCC4=CC(=O)CC[C@@]43C)[C@@H]1CC[C@@H]2O [testosterone] | – | about 99%
